# Assay results taken from PubChem BioAssay (NCI).
#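 Each compound was tested at five concentrations against cells in 96-well plates for 48 hours. TGI marks complete inhibition of growth.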
# Columns and labels:
# Experiment in all cases: DTP human tumour cell line panel, 48 h
# CAKI-1 renal = test system: CAKI-1 renal
# ACHN renal = test system: ACHN renal
# SF-295 CNS = test system: SF-295 CNS
# SK-MEL-5 melanoma = test system: SK-MEL-5 melanoma
# NCI-H460 lung = test system: NCI-H460 lung
# 786-0 renal = test system: 786-0 renal
# A498 renal = test system: A498 renal
# NCI-H522 lung = test system: NCI-H522 lung
# OVCAR-3 ovarian = test system: OVCAR-3 ovarian
# NCI-H226 lung = test system: NCI-H226 lung
# CCRF-CEM leukemia = test system: CCRF-CEM leukemia
# UACC-62 melanoma = test system: UACC-62 melanoma
# DMS 114 small cell lung = test system: DMS 114 small cell lung
# HOP-92 NSCLC = test system: HOP-92 NSCLC
# EKVX NSCLC = test system: EKVX NSCLC
# SK-OV-3 ovarian = test system: SK-OV-3 ovarian
# HCT-116 colon = test system: HCT-116 colon
# DLD-1 colon = test system: DLD-1 colon
# SNB-75 CNS = test system: SNB-75 CNS
# DMS 273 small cell lung = test system: DMS 273 small cell lung
# LOX IMVI melanoma = test system: LOX IMVI melanoma
# HCT-15 colon = test system: HCT-15 colon
# SK-MEL-28 melanoma = test system: SK-MEL-28 melanoma
# HOP-18 NSCLC = test system: HOP-18 NSCLC
# NCI-H23 lung = test system: NCI-H23 lung
# LXFL 529 NSCLC = test system: LXFL 529 NSCLC
# XF 498 CNS = test system: XF 498 CNS
# SR leukemia = test system: SR leukemia
# UO-31 renal = test system: UO-31 renal
# M19-MEL melanoma = test system: M19-MEL melanoma
# KM20L2 colon = test system: KM20L2 colon
# KM12 colon = test system: KM12 colon
# SW-620 colon = test system: SW-620 colon
# SK-MEL-2 melanoma = test system: SK-MEL-2 melanoma
# UACC-257 melanoma = test system: UACC-257 melanoma
# U251 CNS = test system: U251 CNS
# HL-60(TB) leukemia = test system: HL-60(TB) leukemia
# K-562 leukemia = test system: K-562 leukemia
# OVCAR-5 ovarian = test system: OVCAR-5 ovarian
# MOLT-4 leukemia = test system: MOLT-4 leukemia
# M14 melanoma = test system: M14 melanoma
# SNB-19 CNS = test system: SNB-19 CNS
# SNB-78 CNS = test system: SNB-78 CNS
# OVCAR-4 ovarian = test system: OVCAR-4 ovarian
# TK-10 renal = test system: TK-10 renal
# HCC-2998 colon = test system: HCC-2998 colon
# MALME-3M melanoma = test system: MALME-3M melanoma
# RPMI-8226 leukemia = test system: RPMI-8226 leukemia
# SN12C renal = test system: SN12C renal
# HOP-62 NSCLC = test system: HOP-62 NSCLC
# IGROV1 ovarian = test system: IGROV1 ovarian
# COLO 205 colon = test system: COLO 205 colon
# SF-539 CNS = test system: SF-539 CNS
# SF-268 CNS = test system: SF-268 CNS
# OVCAR-8 ovarian = test system: OVCAR-8 ovarian
# HT29 colon = test system: HT29 colon
# A549 NSCLC = test system: A549 NSCLC
structure (smiles),measurement,setting,value
N#Cc1nc(Nc2ccc(Cl)cc2)sc1N,TGI,CAKI-1 renal,45.1 µM
same,TGI,ACHN renal,23.6 µM
same,TGI,SF-295 CNS,42 µM
same,TGI,SK-MEL-5 melanoma,6.41 µM
same,TGI,NCI-H460 lung,> 74.7 µM
same,TGI,786-0 renal,33.7 µM
same,TGI,A498 renal,56 µM
same,TGI,NCI-H522 lung,11.3 µM
same,TGI,OVCAR-3 ovarian,> 61.8 µM
same,TGI,NCI-H226 lung,> 71.7 µM
same,TGI,CCRF-CEM leukemia,> 100 µM
same,TGI,UACC-62 melanoma,42.8 µM
same,TGI,DMS 114 small cell lung,73.7 µM
same,TGI,HOP-92 NSCLC,52.1 µM
same,TGI,EKVX NSCLC,83.2 µM
same,TGI,SK-OV-3 ovarian,> 100 µM
same,TGI,HCT-116 colon,> 100 µM
same,TGI,DLD-1 colon,> 100 µM
same,TGI,SNB-75 CNS,> 71.1 µM
same,TGI,DMS 273 small cell lung,> 63.8 µM
same,TGI,LOX IMVI melanoma,13.7 µM
same,TGI,HCT-15 colon,> 94.6 µM
same,TGI,SK-MEL-28 melanoma,> 70.8 µM
same,TGI,HOP-18 NSCLC,> 100 µM
same,TGI,NCI-H23 lung,13.2 µM
same,TGI,LXFL 529 NSCLC,22.7 µM
same,TGI,XF 498 CNS,> 100 µM
same,TGI,SR leukemia,11.6 µM
same,TGI,UO-31 renal,26.8 µM
same,TGI,M19-MEL melanoma,> 100 µM
same,TGI,KM20L2 colon,> 52 µM
same,TGI,KM12 colon,> 86.5 µM
same,TGI,SW-620 colon,> 69.1 µM
same,TGI,SK-MEL-2 melanoma,47.3 µM
same,TGI,UACC-257 melanoma,31.1 µM
same,TGI,U251 CNS,34.1 µM
same,TGI,HL-60(TB) leukemia,> 76.7 µM
same,TGI,K-562 leukemia,48.6 µM
same,TGI,OVCAR-5 ovarian,> 46.4 µM
same,TGI,MOLT-4 leukemia,29.2 µM
same,TGI,M14 melanoma,> 85.7 µM
same,TGI,SNB-19 CNS,> 100 µM
same,TGI,SNB-78 CNS,> 100 µM
same,TGI,OVCAR-4 ovarian,> 72.5 µM
same,TGI,TK-10 renal,> 76.6 µM
same,TGI,HCC-2998 colon,14.8 µM
same,TGI,MALME-3M melanoma,66.1 µM
same,TGI,RPMI-8226 leukemia,> 65.6 µM
same,TGI,SN12C renal,> 69.1 µM
same,TGI,HOP-62 NSCLC,46 µM
same,TGI,IGROV1 ovarian,> 88.9 µM
same,TGI,COLO 205 colon,47.7 µM
same,TGI,SF-539 CNS,9.46 µM
same,TGI,SF-268 CNS,> 77.9 µM
same,TGI,OVCAR-8 ovarian,> 79.4 µM
same,TGI,HT29 colon,> 51.9 µM
same,TGI,A549 NSCLC,> 67.1 µM
CC1OC(n2cc(I)c(=O)[nH]c2=O)C=CC1=O (stereo not drawn),TGI,CAKI-1 renal,29.5 µM
same,TGI,ACHN renal,31.5 µM
same,TGI,SF-295 CNS,32.5 µM
same,TGI,SK-MEL-5 melanoma,29.5 µM
same,TGI,NCI-H460 lung,35.1 µM
same,TGI,786-0 renal,26.9 µM
same,TGI,A498 renal,29.6 µM
same,TGI,OVCAR-3 ovarian,31.5 µM
same,TGI,NCI-H226 lung,32.3 µM
same,TGI,CCRF-CEM leukemia,7.74 µM
same,TGI,UACC-62 melanoma,31.2 µM
same,TGI,DMS 114 small cell lung,31 µM
same,TGI,HOP-92 NSCLC,33.9 µM
same,TGI,EKVX NSCLC,32.3 µM
same,TGI,SK-OV-3 ovarian,73.2 µM
same,TGI,HCT-116 colon,24.9 µM
same,TGI,DLD-1 colon,26 µM
same,TGI,SNB-75 CNS,31.1 µM
same,TGI,DMS 273 small cell lung,31.3 µM
same,TGI,LOX IMVI melanoma,19.6 µM
same,TGI,HCT-15 colon,32.3 µM
same,TGI,SK-MEL-28 melanoma,29.2 µM
same,TGI,HOP-18 NSCLC,30.3 µM
same,TGI,NCI-H23 lung,30.7 µM
same,TGI,LXFL 529 NSCLC,22.7 µM
same,TGI,XF 498 CNS,33.3 µM
same,TGI,SR leukemia,32.2 µM
same,TGI,UO-31 renal,30.5 µM
same,TGI,M19-MEL melanoma,30.6 µM
same,TGI,KM20L2 colon,31 µM
same,TGI,KM12 colon,25.8 µM
same,TGI,SW-620 colon,26.8 µM
same,TGI,SK-MEL-2 melanoma,32.4 µM
same,TGI,UACC-257 melanoma,27.8 µM
same,TGI,U251 CNS,27.6 µM
same,TGI,HL-60(TB) leukemia,24.6 µM
same,TGI,K-562 leukemia,18 µM
same,TGI,OVCAR-5 ovarian,39.7 µM
same,TGI,MOLT-4 leukemia,33.8 µM
same,TGI,M14 melanoma,30.6 µM
same,TGI,SNB-19 CNS,32.1 µM
same,TGI,SNB-78 CNS,31.9 µM
same,TGI,OVCAR-4 ovarian,29.8 µM
same,TGI,TK-10 renal,32.9 µM
same,TGI,HCC-2998 colon,31.5 µM
same,TGI,MALME-3M melanoma,28.5 µM
same,TGI,RPMI-8226 leukemia,38.7 µM
same,TGI,SN12C renal,33.3 µM
same,TGI,HOP-62 NSCLC,32.7 µM
same,TGI,IGROV1 ovarian,39.2 µM
same,TGI,COLO 205 colon,30.7 µM
same,TGI,SF-539 CNS,27.5 µM
same,TGI,SF-268 CNS,27.1 µM
same,TGI,OVCAR-8 ovarian,30.8 µM
same,TGI,HT29 colon,30.6 µM
same,TGI,A549 NSCLC,72.6 µM
